“And” between values parts separate entries of the source, which are not always exact repeats. Identical values can stand only once. Peptide text beside a SMILES is read from it. * marks the point of attachment. Palmitoyl = CCCCCCCCCCCCCCCC(=O)*
Key:
CXCR4 [1] = biological target: T1, CXCR4 (Homo sapiens, UniProt P61073); test: Chemotaxis assay using SUP B-15 cells; type: cell-based; set-up: A similar procedure was followed for chemotaxis using SUP B-15 cells; endogenous in cells; host or cells: SUP B-15 cells; settings: for activity at 1 µM: SUP-B15, Table 18, i1 loop, SUP B-15 cells, drug conc 1.0 uM; for AUC (% of vehicle) / Max (% of vehicle) / Peak Test Comp.: Table 19, i2 loop, SUPB-15 cells, conc 1.0 uM
T1 sequence (P61073 whole entry): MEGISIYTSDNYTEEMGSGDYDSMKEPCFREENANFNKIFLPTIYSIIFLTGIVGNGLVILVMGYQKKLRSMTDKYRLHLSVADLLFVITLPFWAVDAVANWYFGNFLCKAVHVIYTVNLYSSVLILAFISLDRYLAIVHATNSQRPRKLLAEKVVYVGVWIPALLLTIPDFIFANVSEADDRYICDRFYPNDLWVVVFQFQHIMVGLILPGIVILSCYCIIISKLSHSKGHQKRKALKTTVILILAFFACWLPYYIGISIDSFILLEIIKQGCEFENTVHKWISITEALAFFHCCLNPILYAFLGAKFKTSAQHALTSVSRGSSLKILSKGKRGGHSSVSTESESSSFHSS
Description: Chemotaxis assays were utilized to determine the effect of compound on the directed migration of cells in response to chemokine. Cells that express a receptor of interest were placed in the upper chamber of a Transwell chemotaxis plate (Corning) and allowed to migrate through a polycarbonate membrane to a lower chamber containing the appropriate receptor-specific ligand. To test for antagonist or potentiating activity, cells were mixed with the desired concentration of compound prior to addition to the upper chamber. Conversely, agonist activity was determined by adding compound in the bottom chamber only without endogenous chemokine. The effect of compound is quantified by several parameters, including the extent of maximum response, the shift of agonist dose-response curves, and the area under the curve.
To measure the CXCR4-dependent migration of cells, the appropriate concentration of CXCL12 (SDF1a) or test compound was diluted in phenol red-free RMPI-1640/20 mM HEPES/0.5% BSA buffer and placed in the bottom chamber of a transwell apparatus. CCRF-CEM cells, a human T-cell ALL line that endogenously expresses CXCR4, were washed twice in buffer and resuspended at 133,000 cells/ml. A 75 μl sample of this suspension is mixed with the test compound of interest and placed in the upper chamber of a 5-micron transwell apparatus.
To initiate cell migration, the assembled transwell plate was placed in a 37° C., […] incubator for a specified time interval, typically between 30 and 120 minutes. After incubation, the unit was disassembled and the lower chamber placed at −80° C. overnight to facilitate lysis of cells. To quantify migrated cells, plates were thawed at 37° C. in a humidified chamber, and then a sample volume was removed from each well and mixed with an equal volume of CyQuant (Invitrogen) working solution in opaque plates. The fluorescence intensity of each well represents the DNA content and is directly proportional to cell number. Each sample was typically run in duplicate or triplicate and each plate included two separate negative controls. The plate background control, which included no cells in the upper chamber, was subtracted from all values. The negative control had no agonist added in the lower chamber, and served to establish the baseline for random migration. A similar procedure was followed for chemotaxis using SUP B-15 cells.

CXCR4 [2] = biological target: T1, CXCR4; test: Chemotaxis assay, effect on SDF1-a (CXCL12) induced migration of CCRF-CEM cells; type: cell-based; set-up: a human T-cell ALL line that endogenously expresses CXCR4; endogenous in cells; host or cells: CCRF-CEM (human T-cell ALL line); settings: CEM cells; for activity at 1 µM: CCRF-CEM
Description: To initiate cell migration, the assembled transwell plate was placed in a 37° C., 0.5% CO2 incubator for a specified time interval, typically between 30 and 120 minutes. After incubation, the unit was disassembled and the lower chamber placed at −80° C. overnight to facilitate lysis of cells. To quantify migrated cells, plates were thawed at 37° C. in a humidified chamber, and then a sample volume was removed from each well and mixed with an equal volume of CyQuant (Invitrogen) working solution in opaque plates. The fluorescence intensity of each well represents the DNA content and is directly proportional to cell number. […] The plate background control, which included no cells in the upper chamber, was subtracted from all values.

[3] = Table 18, i1 loop, drug conc 1.0 uM, read-out: AUC (% of)
[4] = Table 18, i1 loop, drug conc 1.0 uM, read-out: Max (% of)

| Compound | activity at 1 µM (CXCR4 [1]; read-out: AUC (% of)) | activity at 1 µM (CXCR4 [1]; read-out: Max (% of)) | AUC (% of vehicle) (CXCR4 [1]) | Max (% of vehicle) (CXCR4 [1]) | Peak Test Comp. (CXCR4 [1]) | further results |
| --- | --- | --- | --- | --- | --- | --- |
| CCCCCCCCCCCCCCCC(=O)N[C@@H](CCCCN)C(=O)N[C@@H](CCCCN)C(=O)N[C@@H](CC(C)C)C(=O)N[C@@H](CCCNC(=N)N)C(=O)N[C@@H](CO)C(=O)N[C@@H](CCSC)C(=O)N[C@H](C(=O)N[C@@H](CC(=O)O)C(=O)N[C@@H](CCCCN)C(=O)N[C@@H](Cc1ccc(O)cc1)C(=O)N[C@@H](CCCNC(=N)N)C(=O)N[C@@H](CC(C)C)C(N)=O)[C@@H](C)O [Compound 44, Pal-KKLRSMTDKYRL-amide] (Palmitoyl-KKLRSMTDKYRL-NH2) | 25.9% | 31.5% | – | – | – | – |
| CCCCCCCCCCCCCCCC(=O)N[C@@H](CCCCN)C(=O)N[C@@H](CCCCN)C(=O)N[C@@H](CC(C)C)C(=O)N[C@@H](CCCNC(=N)N)C(=O)N[C@@H](CO)C(=O)N[C@@H](CCSC)C(=O)N[C@H](C(=O)N[C@@H](CC(=O)O)C(=O)N[C@@H](CCCCN)C(=O)N[C@@H](Cc1ccc(O)cc1)C(N)=O)[C@@H](C)O [Compound 46] (Palmitoyl-KKLRSMTDKY-NH2) | 87.2% | 82.9% | – | – | – | activity at 1 µM (CXCR4 [2]; [3]): 69.7%; activity at 1 µM (CXCR4 [2]; [4]): 116% |
| CCCCCCCCCCCCCCCC(=O)N[C@@H](CCCCN)C(=O)N[C@@H](CCCCN)C(=O)N[C@@H](CC(C)C)C(=O)N[C@@H](CCCNC(=N)N)C(=O)N[C@@H](CO)C(=O)N[C@@H](CCSC)C(=O)N[C@H](C(=O)N[C@@H](CC(=O)O)C(=O)N[C@@H](CCCCN)C(=O)N[C@@H](Cc1ccc(O)cc1)C(=O)N[C@@H](CCCNC(=N)N)C(=O)N[C@@H](CC(C)C)C(=O)N[C@@H](Cc1cnc[nH]1)C(=O)N[C@@H](CC(C)C)C(=O)N[C@@H](CO)C(=O)N[C@H](C(N)=O)C(C)C)[C@@H](C)O [Compound 41] (Palmitoyl-KKLRSMTDKYRLHLSV-NH2) | 51.7% | 41.7% | – | – | – | activity at 1 µM (CXCR4 [2]; [3]): 66.7%; activity at 1 µM (CXCR4 [2]; [4]): 76.8% |
| 81 (Palmitoyl-HATNSQRPRKLLAE-NH2; not fully specified) [Compound 81] | – | – | 79.85 % of vehicle | 76.46 % of vehicle | 5 nM | – |
| 74 (DRYLAIVHATNSQRPRKLL) [Compound 74] | – | – | 90.39 % of vehicle and 77.13 % of vehicle | 91.29 % of vehicle and 75.81 % of vehicle | 5 nM | – |
| CCCCCCCCCCCCCCCC(=O)N[C@H](C(=O)N[C@@H](CCSC)C(=O)NCC(=O)N[C@@H](Cc1ccc(O)cc1)C(=O)N[C@@H](CCC(N)=O)C(=O)N[C@@H](CCCCN)C(=O)N[C@@H](CCCCN)C(=O)N[C@@H](CC(C)C)C(=O)N[C@@H](CCCNC(=N)N)C(=O)N[C@@H](CO)C(=O)N[C@@H](CCSC)C(=O)N[C@H](C(=O)N[C@@H](CC(=O)O)C(N)=O)[C@@H](C)O)C(C)C [Compound 35] (Palmitoyl-VMGYQKKLRSMTD-NH2) | 31.7% | 49.3% | – | – | – | activity at 1 µM (CXCR4 [2]; [3]): 57.9%; activity at 1 µM (CXCR4 [2]; [4]): 57% |
| CCCCCCCCCCCCCCCC(=O)N[C@@H](CCCCN)C(=O)N[C@@H](CCCCN)C(=O)N[C@@H](CC(C)C)C(=O)N[C@@H](CCCNC(=N)N)C(=O)N[C@@H](CO)C(=O)N[C@@H](CCSC)C(=O)N[C@H](C(=O)N[C@@H](CC(=O)O)C(=O)N[C@@H](CCCCN)C(=O)N[C@@H](Cc1ccc(O)cc1)C(=O)N[C@@H](CCCNC(=N)N)C(N)=O)[C@@H](C)O [Compound 45] (Palmitoyl-KKLRSMTDKYR-NH2) | 178% | 194% | – | – | – | – |
| CCCCCCCCCCCCCCCC(=O)N[C@@H](CCSC)C(=O)NCC(=O)N[C@@H](Cc1ccc(O)cc1)C(=O)N[C@@H](CCC(N)=O)C(=O)N[C@@H](CCCCN)C(=O)N[C@@H](CCCCN)C(=O)N[C@@H](CC(C)C)C(=O)N[C@@H](CCCNC(=N)N)C(=O)N[C@@H](CO)C(=O)N[C@@H](CCSC)C(=O)N[C@H](C(=O)N[C@@H](CC(=O)O)C(=O)N[C@@H](CCCCN)C(=O)N[C@@H](Cc1ccc(O)cc1)C(=O)N[C@@H](CCCNC(=N)N)C(=O)N[C@@H](CC(C)C)C(N)=O)[C@@H](C)O [Compound 38, Pal-MGYQKKLRSMTDKYRL-amide] (Palmitoyl-MGYQKKLRSMTDKYRL-NH2) | 32.4% | 49.6% | – | – | – | – |
| CCCCCCCCCCCCCCCC(=O)N[C@@H](CCCCN)C(=O)N[C@@H](CCCCN)C(=O)N[C@@H](CC(C)C)C(=O)N[C@@H](CCCNC(=N)N)C(=O)N[C@@H](CO)C(=O)N[C@@H](CCSC)C(=O)N[C@H](C(=O)N[C@@H](CC(=O)O)C(=O)N[C@@H](CCCCN)C(=O)N[C@@H](Cc1ccc(O)cc1)C(=O)N[C@@H](CCCNC(=N)N)C(=O)N[C@@H](CC(C)C)C(=O)N[C@@H](Cc1cnc[nH]1)C(=O)N[C@@H](CC(C)C)C(N)=O)[C@@H](C)O [Compound 42] (Palmitoyl-KKLRSMTDKYRLHL-NH2) | 43.8% | 33.5% | – | – | – | – |
| 82 (Palmitoyl-HATNSQRPRKLLAEK-NH2; not fully specified) [Compound 82] | – | – | 124.56 % of vehicle | 126.31 % of vehicle | 1 nM | – |
| CCCCCCCCCCCCCCCC(=O)N[C@@H](Cc1ccc(O)cc1)C(=O)N[C@@H](CCC(N)=O)C(=O)N[C@@H](CCCCN)C(=O)N[C@@H](CCCCN)C(=O)N[C@@H](CC(C)C)C(=O)N[C@@H](CCCNC(=N)N)C(=O)N[C@@H](CO)C(=O)N[C@@H](CCSC)C(=O)N[C@H](C(=O)N[C@@H](CC(=O)O)C(=O)N[C@@H](CCCCN)C(=O)N[C@@H](Cc1ccc(O)cc1)C(=O)N[C@@H](CCCNC(=N)N)C(=O)N[C@@H](CC(C)C)C(=O)N[C@@H](Cc1cnc[nH]1)C(=O)N[C@@H](CC(C)C)C(=O)N[C@@H](CO)C(=O)N[C@H](C(N)=O)C(C)C)[C@@H](C)O [Compound 40] (Palmitoyl-YQKKLRSMTDKYRLHLSV-NH2) | 71.9% | 71.2% | – | – | – | – |
| 80 (Palmitoyl-HATNSQRPRKLLA-NH2; not fully specified) [Compound 80] | – | – | 102.2 % of vehicle | 69.02 % of vehicle | 5 nM | – |
| 83 (Palmitoyl-HATNSQRPRKLLAEKV-NH2; not fully specified) [Compound 83] | – | – | 126.36 % of vehicle | 110.06 % of vehicle | 5 nM | – |
| 79 (Palmitoyl-HATNSQRPRKL-NH2; not fully specified) [Compound 79] | – | – | 109.36 % of vehicle | 109.68 % of vehicle | 5 nM | – |
| CCCCCCCCCCCCCCCC(=O)N[C@@H](Cc1cnc[nH]1)C(=O)N[C@@H](CO)C(=O)N[C@@H](CCCCN)C(=O)NCC(=O)N[C@@H](Cc1cnc[nH]1)C(=O)N[C@@H](CCC(N)=O)C(=O)N[C@@H](CCCCN)C(=O)N[C@@H](CCCNC(=N)N)C(=O)N[C@@H](CCCCN)C(=O)N[C@@H](C)C(=O)N[C@@H](CC(C)C)C(=O)N[C@@H](CCCCN)C(=O)N[C@H](C(N)=O)[C@@H](C)O [Compound 97] (Palmitoyl-HSKGHQKRKALKT-NH2) | – | – | – | – | – | activity at 1 µM (CXCR4 [2]; Table 20, i3 loop, conc 1.0 uM, read-out: AUC (% of vehicle)): 48.9%; activity at 1 µM (CXCR4 [2]; Table 20, i3 loop, conc 1.0 uM, read-out: Max (% of vehicle)): 54.7%; Peak Test Compound (CXCR4 [2]; Table 20, i3 loop, conc 1.0 uM): 1 nM; Peak Ratio (CXCR4 [2]; Table 20, i3 loop, conc 1.0 uM, peak test compound/peak control): 0.2 |
| 78 (Palmitoyl-VHATNSQRPRKLLA-NH2; not fully specified) [Compound 78] | – | – | 71.85 % of vehicle | 72.31 % of vehicle | 5 nM | – |

— patent publication US9096646B2, “CXCR4 receptor compounds” (priority 2008, dated 2015)
